Source: paper PMC9230784, “Development of a Novel Class of Pyridazinone Derivatives as Selective MAO-B Inhibitors” (Molecules, 2022)
Entries after “also recorded” stand apart in the source; their conditions may differ. Where two headings read alike, the source gives them in different places.

What was measured:
[1] = for Prediction (BBB permeation class): PAMPA-BBB; for BBB permeation in words: PAMPA
Recombinant human MAO-A = biological target: T1, Recombinant human MAO-A (Homo sapiens, UniProt P21397); assay: biochemical; settings: for remaining activity at 10 µM: 10 µM compound, mean ± standard error of duplicate or triple studies, read-out: Residual Activity at 10 µM (%) MAO-A
T1 construct: purchased Sigma-Aldrich (St. Louis, MO, USA)
T1 sequence (P21397 1-527): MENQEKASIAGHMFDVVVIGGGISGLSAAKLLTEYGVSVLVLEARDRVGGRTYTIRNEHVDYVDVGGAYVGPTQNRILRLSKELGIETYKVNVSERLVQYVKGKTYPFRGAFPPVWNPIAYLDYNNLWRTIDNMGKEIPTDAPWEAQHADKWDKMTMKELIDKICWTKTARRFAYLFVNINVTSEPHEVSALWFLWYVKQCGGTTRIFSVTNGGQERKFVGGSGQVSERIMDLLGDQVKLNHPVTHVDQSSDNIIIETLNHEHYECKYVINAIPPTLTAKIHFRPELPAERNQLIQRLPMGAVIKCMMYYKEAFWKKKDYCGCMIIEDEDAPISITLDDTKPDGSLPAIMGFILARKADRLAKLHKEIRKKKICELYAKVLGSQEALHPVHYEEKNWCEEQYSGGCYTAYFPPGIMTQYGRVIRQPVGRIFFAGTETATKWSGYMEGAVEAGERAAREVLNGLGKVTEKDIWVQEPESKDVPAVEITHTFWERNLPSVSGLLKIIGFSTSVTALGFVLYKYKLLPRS
Method: (§1) The IC50 values were determined by measuring the residual activity at different concentrations of the compounds and by using GraphPad Prism software 5.0. […] BACE1 inhibitory activities were tested by the BACE1 activity detection kit. The assay method was described previously. Recombinant human MAO-A and MAO-B, AChE from Electrophorus electricus, BChE from equine serum, BACE1, and their substrates and reference inhibitors were purchased from Sigma-Aldrich (St. Louis, MO, USA).
(§2) Lineweaver–Burk plots were used to examine the inhibition patterns, and secondary plots were used to calculate the Ki values with three inhibitor dosages.

MAO-B [2] = biological target: T2, MAO-B (Homo sapiens, UniProt P27338); assay: biochemical; format: biochemical; settings: for remaining activity at 10 µM: 10 µM compound, mean ± standard error of duplicate or triple studies, read-out: Residual Activity at 10 µM (%) MAO-B; for SI (selectivity index for MAO-B compared with MAO-A): MAO-B versus MAO-A
T2 construct: purchased Sigma-Aldrich (St. Louis, MO, USA)
T2 sequence (P27338 1-520): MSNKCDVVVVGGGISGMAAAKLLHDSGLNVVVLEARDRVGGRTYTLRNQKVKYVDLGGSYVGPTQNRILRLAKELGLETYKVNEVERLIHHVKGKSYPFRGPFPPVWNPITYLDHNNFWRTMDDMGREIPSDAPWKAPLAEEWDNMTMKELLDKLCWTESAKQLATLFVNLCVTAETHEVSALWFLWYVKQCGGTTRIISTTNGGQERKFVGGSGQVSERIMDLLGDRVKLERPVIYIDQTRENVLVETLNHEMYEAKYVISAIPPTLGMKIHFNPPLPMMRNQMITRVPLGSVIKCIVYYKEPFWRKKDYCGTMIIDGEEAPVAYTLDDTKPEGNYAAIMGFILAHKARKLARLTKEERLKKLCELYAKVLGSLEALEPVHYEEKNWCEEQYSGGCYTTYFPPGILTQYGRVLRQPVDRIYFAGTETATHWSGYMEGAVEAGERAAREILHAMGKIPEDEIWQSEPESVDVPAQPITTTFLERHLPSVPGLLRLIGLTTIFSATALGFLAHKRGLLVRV
Method: as §1, with “USA). […]” for “USA).”

MAO-B [3] = biological target: T2, MAO-B; assay: Kinetic study, Lineweaver–Burk and secondary plots; format: biochemical; settings: for Inhibition type for MAO-B: Lineweaver–Burk plots
Excerpt: Five different substrate concentrations were used in the kinetics.
as §2

in vitro = settings: PAMPA
MAO-B [4] = biological target: T2, MAO-B; assay: Inhibition reversibility by dialysis; format: biochemical; settings: for Reversibility of MAO-B inhibition: dialysis, AU versus AD; for Relative activity of dialyzed (AD) sample / Relative activity of undialyzed (AU) sample: preincubation 30 min at ~2 × IC50
Excerpt: The relative activity of undialyzed (AU) as well as dialyzed (AD) samples were compared to establish reversibility profiles.
To determine reversibility patterns, the activities of dialyzed (AD) and undialyzed (AU) specimens were compared.

[5] = kynuramine 0.06 mM, highest concentration 40 µM, read-out: IC50 (µM) MAO-A
[6] = benzylamine 0.3 mM, highest concentration 40 µM, read-out: IC50 (µM) MAO-B

Row | SMILES | Prediction (BBB permeation class) [1] | remaining activity at 10 µM (Recombinant human MAO-A) [%] | IC50 (Recombinant human MAO-A; [5]) [µM] | remaining activity at 10 µM (MAO-B [2]) [%] | SI (selectivity index for MAO-B compared with MAO-A) (MAO-B [2]) | IC50 (MAO-B [2]; [6]) [µM] | IC50 (Recombinant human MAO-A) [µM] | IC50 (MAO-B [2]) [µM] | also measured
1 | CC(=O)[C@H]1CC[C@H]2[C@@H]3CCC4=CC(=O)CC[C@]4(C)[C@H]3CC[C@]12C [Progesterone, reference compound] | CNS+ (CNS+, Pe (10^−6 cm/s) >4, good BBB permeable) |  |  |  |  |  |  |  | 
2 | Cc1ccc(C=NNC(=O)Cn2nc(N3CCN(c4cccc(C(F)(F)F)c4)CC3)ccc2=O)cc1 [TR11] |  | 55.6 ± 2.28 | 18.5 ± 5.83 | 83.87 ± 0.56 | 0.57 | 32 ± 1.21 |  |  | 
3 | CCn1cc(C(=O)O)c(=O)c2cc(F)c(N3CCNC(C)C3)c(F)c21 (stereo not drawn) [Lomefloxacin, reference compound] | CNS- (CNS-: Pe (10^−6 cm/s) <2, less BBB permeable) |  |  |  |  |  |  |  | 
4 | COc1cccc(N2CCN(c3ccc(=O)n(CC(=O)NN=Cc4ccccc4)n3)CC2)c1 [TR1] |  | 82 ± 1.2 | 17.3 ± 1.2 | 80.5 ± 1.01 | <0.43 | > 40 |  |  | 
5 | O=C(Cn1nc(N2CCN(c3cccc(C(F)(F)F)c3)CC2)ccc1=O)NN=Cc1ccc(Cl)cc1 [TR8] |  | 52.9 ± 0.82 | 12 ± 1.75 | 69.1 ± 0.95 | 0.60 | 20 |  |  | 
6 | COc1cccc(N2CCN(c3ccc(=O)n(CC(=O)NN=Cc4ccc(Cl)cc4)n3)CC2)c1 [TR2] | CNS+ (CNS+, Pe (10^−6 cm/s) >4, good BBB permeable) | 65.8 ± 0.66 |  | -4.37 ± 4.13 |  |  | 22.9 ± 0.24 | 0.27 ± 0.02 | BBB permeation in words [1]: tendency to traverse the blood–brain barrier; also recorded: good CNS permeabilities; Ki (MAO-B [3]): 0.23 ± 0.004 µM; Inhibition type for MAO-B (MAO-B [3]): competitive inhibitors; Papp (in vitro): 9.33 ± 0.33 ×10⁻⁶ cm/s; Reversibility of MAO-B inhibition (MAO-B [4]): reversible inhibitors; Relative activity of dialyzed (AD) sample (MAO-B [4]): 75.0%; Relative activity of undialyzed (AU) sample (MAO-B [4]): 28.0%; Fold increase of MAO-B inhibitory potency compared to the basic structure TR1 (MAO-B [2]; versus TR1): 148.1 fold
7 | O=C(Cn1nc(N2CCOCC2)ccc1=O)NN=Cc1ccc(F)cc1 [TR15] |  | 85.6 ± 1.04 |  | 12.5 ± 3.54 |  |  | > 40 | 0.43 ± 0.05 | 
8 | O=C(Cn1nc(N2CCOCC2)ccc1=O)NN=Cc1ccc(Cl)cc1 [TR16] | CNS+ (CNS+, Pe (10^−6 cm/s) >4, good BBB permeable) | 85 ± 3.08 |  | 13.1 ± 0.64 |  |  | > 40 | 0.17 ± 0.04 | BBB permeation in words [1]: tendency to traverse the blood–brain barrier; also recorded: good CNS permeabilities; Ki (MAO-B [3]): 0.149 ± 0.016 µM; Inhibition type for MAO-B (MAO-B [3]): competitive inhibitors; Papp (in vitro): 10.6 ± 0.26 ×10⁻⁶ cm/s; Reversibility of MAO-B inhibition (MAO-B [4]): reversible inhibitors; Relative activity of dialyzed (AD) sample (MAO-B [4]): 73.4%; Relative activity of undialyzed (AU) sample (MAO-B [4]): 31.8%; Fold higher IC50 for MAO-B than TR2 (MAO-B [2]; versus TR2): 1.59 fold; Times higher MAO-B inhibitory activity over the basic structure TR14 (MAO-B [2]; versus TR14): 235.3 times; Times higher MAO-B inhibitory activity over TR15 (MAO-B [2]; versus TR15): 2.5 times
9 | O=C(Cn1nc(N2CCN(c3cccc(C(F)(F)F)c3)CC2)ccc1=O)NN=Cc1ccc(F)cc1 [TR9] |  | 72.28 ± 0.4 | 17.1 ± 0.21 | 46.5 ± 4.93 | 17.08 | 1 ± 0.15 |  |  | 
